Data from article PMC7226357, “Aspirin: A Suicide Inhibitor of Carbonic Anhydrase II” (Biomolecules, 2020).

Molecular target: T1, Carbonic anhydrase II (Homo sapiens, UniProt P00918)
T1 construct: gene CA2
Assay: colorimetric esterase assay at […] nm (substrate of the assay)
Format: biochemical

CC(=O)Oc1ccc([N+](=O)[O-])cc1 [pNPA, 4-nitrophenyl acetate]
colorimetric esterase assay at 348 nm (substrate of the assay): CAII cleaves the ester bond of 4-nitrophenyl acetate, generating 4-nitrophenol.
